Assay results: patent US4328215A, “Method of reducing or avoiding the mutagenic activity of drugs” (The Johns Hopkins University, priority 1977, dated 1982)
Where two headings read alike, the source gives them in different places. Each block holds one compound with its values, some of them ahead of it. Where a SMILES comes first, the peptide text is derived from it. Bridges are numbered along the chain shown (N, C = ends). [ ]: non-standard residue; d: D form. The star is where a group is joined. Ileψ(thiazoline)Cys = CC[C@H](C)[C@H](N)C1=N[C@H](C(=O)*)CS1; dOrn = NCCC[C@@H](N)C(=O)O

Columns and labels:
[1] = system: S. typhimurium TA 100
[2] = system: intestinal bacteria; test: Effect on intestinal bacterial flora of mice; format: in vivo
Procedure: […] Homogenates of these organs were made with 10 ml nutrient broth (Difco) and serial dilutions were plated on nutrient agar plates. Obligatory anaerobic bacteria were counted in the same manner except that the organs were homogenized in thioglycolate (Difco) medium and the agar plates were incubated in anaerobic jars. The plates were counted after incubation for 24 hours at 37° C. There were no significant differences in counts when the incubation time was extended for 48 hours. Six mice were used for each time interval.

[3] = ampicillin administered; cited from earlier work
[4] = monkeys; oxamniquine alone; cited from earlier work
[5] = Mutagenic metabolite of oxamniquine in urine of mice; format: in vivo; settings: mixture of erythromycin, bacitracin and succinyl sulfathiazole
From the text: Ir also is used, though to a lesser extent, in Africa and the Mid-east for the treatment of schistosomiasis mansoni.

[6] = mice; oxamniquine alone; cited from earlier work

SMILES: CC[C@H](C)[C@H](N)C1=N[C@H](C(=O)N[C@@H](CC(C)C)C(=O)N[C@H](CCC(=O)O)C(=O)N[C@H](C(=O)N[C@H]2CCCCNC(=O)[C@H](CC(N)=O)NC(=O)[C@@H](CC(=O)O)NC(=O)[C@H](Cc3cnc[nH]3)NC(=O)[C@@H](Cc3ccccc3)NC(=O)[C@H]([C@@H](C)CC)NC(=O)[C@@H](CCCN)NC2=O)[C@@H](C)CC)CS1 [Bacitracin] ({Ileψ(thiazoline)Cys}-L[dE]IK[dOrn]I[dF]H[dD]N; lactam 4-C)
- Host-mediated assay, revertants per 10^8 bacteria, controls (no CGP 4540) ([1]; bacitracin alone, 220 mg/kg, mice): 64(±9) revertants per 10^8 bacteria
- Host-mediated assay, revertants per 10^8 bacteria, controls (no CGP 4540) ([1]; bacitracin alone, 440 mg/kg, mice): 71(±5) revertants per 10^8 bacteria

SMILES: CC[C@H]1OC(=O)[C@H](C)[C@@H](O[C@H]2C[C@@](C)(OC)[C@@H](O)[C@H](C)O2)[C@H](C)[C@@H](O[C@@H]2O[C@H](C)C[C@H](N(C)C)[C@H]2O)[C@](C)(O)C[C@@H](C)C(=O)[C@H](C)[C@@H](O)[C@]1(C)O [Erythromycin]
- Host mediated assay, revertants per 10^8 bacteria, controls (no CGP 4540) ([1]; antibiotic alone, 100 mg/kg oral, mice): 65 (±4) revertants per 10^8 bacteria
- Number of aerobes in the large intestine ([2]; erythromycin base 100 mg/kg single oral dose, large intestine, aerobes): little, if any, change
- Number of anaerobes in the large intestine ([2]; erythromycin base 100 mg/kg single oral dose, large intestine, anaerobes): little, if any, change
- Total number of aerobic bacteria in the small intestine ([2]; erythromycin base 100 mg/kg single oral dose, small intestine, aerobes): only a moderate reduction, of relatively short duration
- Anaerobic bacteria in the small intestine ([2]; erythromycin base 100 mg/kg single oral dose, small intestine, anaerobes): reduced to an even lesser extent than were aerobes

- Host-mediated assay, revertants per 10^8 bacteria, controls (no CGP 4540) ([1]; in vivo): 62(±5) revertants per 10^8 bacteria
SMILES: O=C(O)CCC(=O)Nc1ccc(S(=O)(=O)Nc2nccs2)cc1 [Succinylsulfathiazole]
- Bacterial flora of the host's intestines ([2]; 1 g/kg once daily for 3 successive days, oral): reduces the bacterial flora

SMILES: C[N+]([O-])=NCO[C@@H]1O[C@H](CO)[C@@H](O)[C@H](O)[C@H]1O [cycasin]
- Formation of the aglycone after administration of ampicillin [3]: prevented

SMILES: CC(C)NCC1CCc2cc(CO)c([N+](=O)[O-])cc2N1 (stereo not shown) [oxamniquine]
- Mutagenic metabolite in urine [4]: gives rise to the appearance of a mutagenic metabolite in the urine
- Appearance of the mutagenic metabolite with coadministered antibacterial agents [5]: completely eliminates the appearance of the mutagenic metabolite
- Mutagenic metabolite in urine [6]: gives rise to the appearance of a mutagenic metabolite in the urine
